Measured values as given in ChEMBL document CHEMBL1151288, “Dichlorinated pulvinic acid derivative from a Malaysian Scleroderma sp” (J Nat Prod, 2005).
pIC50: −log10 of the molar value.

Legend:
Bacillus subtilis = assay: Antibacterial activity against Bacillus subtilis at 40 ug; type: functional; conditions: read-out: IZ
P388 = assay: Cytotoxicity against mouse P388 cells; type: functional, cell-based

Row | Compound | zone of inhibition at 40 µg/disc (Bacillus subtilis) [mm] | pIC50 (P388)
1 | COC(=O)/C(=C1/OC(=O)C(c2ccc(OC)cc2)=C1O)c1ccc(OC)c(Cl)c1 | 7 | –
2 | COC(=O)/C(=C1/OC(O)=C(c2ccc(OC)cc2)C1=O)c1ccc(OC)cc1 | 8 | –
3 | COC(=O)/C(=C1/OC(=O)C(c2ccc(OC)cc2)=C1O)c1cc(Cl)c(OC)c(Cl)c1 | 4 | 4.69
